Entries after “also recorded” stand apart in the source; their conditions may differ.

What is called viability is a read-out of living cells in per cent, often relative to untreated cells. What is called IC50 is the concentration that gives 50% inhibition.

Common to all, as to type: cell-based
The nature of data set [1]: Cell viability assay (CCK-8). As to conditions: human; HEK293 cells, CCK-8, compound at 100 μM, 48 h incubation; read-out: Cell Viability (%) (N = 3). On the procedure:
(§1) The viability of HEK293 cells was determined by a CCK-8 assay according to the established protocol. Briefly, 5 × 10^3 cells/well HEK293 cells were cultured in 96-well plates at 37 °C under an atmosphere of 5% CO2 for 24 h and then treated with the tested compounds. After 48 h of incubation, CCK-8 reagent (20 μL) was added into each well and continuously incubated for 2 h at 37 °C. Absorbance at a wavelength of 450 nm was measured by a microplate reader, which was further used to calculate the cell viability. All the experiments were performed in triplicate.

The test system of data set [2] is NF-κB pathway. As to the kind of experiment: NF-κB inhibitory (immunosuppressive) activity, luciferase reporter assay in LPS-induced HEK293/NF-κB-Luc cells. Particulars: for inhibition at 100 µM / IC50: Homo sapiens; for inhibition at 100 µM: HEK293, 24 h, read-out: NF-κB Inhibitory Rates (%) (N = 3); for IC50: read-out: IC50 NF-κB inhibition. On the procedure:
The NF-κB inhibitory activities were measured using the HEK293/NF-κB-Luc cells, which were generated as described previously. Briefly, HEK293 cells were co-transfected with a luciferase reporter plasmid, which contained an NF-κB binding site and pcDNA3.1, using Lipofectamine 2000 at a concentration of 10:1. The HEK293/ NF-κB-Luc cells were plated in 48-well plates and cultured in DMEM supplemented with 10% fetal bovine serum (FBS) for 16 h. Then, the cells were treated with the tested compounds, followed by stimulation with 1 μg/mL of LPS for 24 h. The cells were rinsed twice with phosphate-buffered saline (PBS, pH 7.4) and lysed with passive lysis buffer. Then, the inhibitory effects on NF-κB were analyzed using the luciferase assay system according to the manufacturer’s instructions. All the experiments were performed in triplicate.
Background: In a reporter assay the amount or activity of a reporter protein is the signal.

Data set [3] concerns HEK293 cells. Briefly: Cell viability assay (CCK-8). As to conditions: for influence on the cell viability: CCK-8, at a concentration of 100 μM. The method, then: as §1
Setting [4] is: HEK293/NF-κB-Luc cells induced by LPS (1 μg/mL, 24 h), compound at 100 μM.
Setting [5] is: HEK293/NF-κB-Luc cells induced by LPS.

For the compound `CC(=O)OCC12[C@H](OC(C)=O)[C@H](OC(C)=O)[C@@H]3[C@@H](OC(C)=O)[C@@]14O[C@@]3(C)COC(=O)c1cccnc1CCC(C)(OC(=O)c1ccccc1)C(=O)O[C@@H]([C@H](OC(C)=O)[C@@H]2OC(C)=O)[C@]4(C)O` (stereo partly drawn) [Compound 15, wilfornine A], the viability at 48 h, 100 µM in data set [1] turned out to be 110 ± 5.83%. Further, the inhibition at 100 µM in data set [2] (setting [4]) stood at 8.73 ± 2.07%.

With `CC(=O)OC[C@]12[C@H](OC(C)=O)[C@H](OC(C)=O)[C@@H]3[C@@H](OC(C)=O)[C@@]14O[C@@]3(C)COC(=O)c1cccnc1CCC(C)(O)C(=O)O[C@@H]([C@H](O)[C@@H]2OC(C)=O)[C@@]4(C)O` (stereo partly drawn) [Compound 11, tripfordine A], the viability at 48 h, 100 µM in data set [1] turned out to be 102 ± 3.66%. Besides, the “influence on the cell viability” value in data set [3] is “no influence on the cell viability; also recorded: no effects on the cell viability”. Also, the inhibition at 100 µM in data set [2] (setting [4]) was more than 50%. In addition, the IC50 in data set [2] (setting [5]) stood at 0.74 µM.

For `CC(=O)OCC12[C@H](OC(C)=O)[C@H](OC(C)=O)[C@@H]3[C@@H](OC(C)=O)[C@@]14O[C@@]3(C)COC(=O)c1cccnc1CCC(C)C(=O)O[C@@H]([C@H](O)[C@@H]2OC(C)=O)[C@]4(C)O` (stereo partly drawn) [Compound 12, wilforjine], in data set [1], the viability at 48 h, 100 µM came out at 93.5 ± 2.76%. Besides, in data set [2] (setting [4]), the inhibition at 100 µM amounted to 23 ± 3.43%.

wilfortrine [Compound 14]: the “Cell Viability (%) (N = 3)” value in data set [3] (HEK293 cells, CCK-8, compound at 100 μM, 48 h incubation) was determined as 93.76 ± 1.82%. The “NF-κB Inhibitory Rates (%) (N = 3)” value in data set [2] (setting [4]) amounted to 40.20 ± 3.92%.

For `Cc1ccc(NCCCc2ccccc2)c(N)c1` [JSH23, reference compound], the “NF-κB Inhibitory Rates (%) (N = 3)” value in data set [2] (positive control, HEK293/NF-κB-Luc cells induced by LPS, concentration not given) is reported as 74.56 ± 1.83%.

Regarding `CC(=O)OCC12[C@H](OC(C)=O)C(=O)[C@@H]3[C@@H](OC(C)=O)[C@@]14O[C@@]3(C)COC(=O)c1cccnc1CCC(C)C(=O)O[C@@H]([C@H](OC(C)=O)[C@@H]2OC(C)=O)[C@]4(C)O` (stereo partly drawn) [Compound 13, evonimine], in data set [1], the viability at 48 h, 100 µM amounted to 100 ± 6.4%. Moreover, the inhibition at 100 µM in data set [2] (setting [4]) is 26.5 ± 5.99%.

As to `CC(=O)OCC12C(OC(C)=O)C(=O)C3C(OC(C)=O)C14OC3(C)COC(=O)c1cccnc1CCC(C)(OC(=O)c1ccoc1)C(=O)OC(C(OC(C)=O)C2OC(C)=O)C4(C)O` (stereo not drawn) [Compound 9, 1β,2β,5α,8β,11-pentaacetoxy-4α-droxy-7-oxo-3α,15-[2′-methyl-2′-(3-furoyloxy)-4′-(3′′-carboxy-2′′-pyridyl)butanoic acid] dicarbolactone dihydro-β-agarofuran], the viability at 48 h, 100 µM in data set [1] worked out at 99.5 ± 5.71%. Moreover, the inhibition at 100 µM in data set [2] (setting [4]) was found to be 37.4 ± 1.99%.

Regarding `CC(=O)OC[C@]12[C@H](OC(C)=O)[C@H](OC(C)=O)[C@@H]3[C@@H](OC(C)=O)[C@@]14O[C@@]3(C)COC(=O)c1cccnc1CCC(C)C(=O)O[C@@H]([C@H](OC(=O)c1ccccc1)[C@@H]2OC(C)=O)[C@]4(C)O` (stereo partly drawn) [Compound 16, wilforine], the viability at 48 h, 100 µM in data set [1] turned out to be 103 ± 2.21%. The “influence on the cell viability” value in data set [3] was “no influence on the cell viability; also recorded: no effects on the cell viability”. In addition, the inhibition at 100 µM in data set [2] (setting [4]) was more than 50%. Besides, the IC50 in data set [2] (setting [5]) is 15.7 µM.

Regarding `CC(=O)OCC12[C@H](OC(C)=O)[C@H](OC(C)=O)[C@@H]3[C@@H](O)[C@@]14O[C@@]3(C)COC(=O)c1cccnc1CCC(C)(O)C(=O)O[C@@H]([C@H](OC(=O)c1ccoc1)[C@@H]2OC(C)=O)[C@]4(C)O` (stereo partly drawn) [Compound 4, 2β-furanoyloxy-1β,7β,8β,11-tetraacetoxy-4α,5α-dihydroxy-3α,15-[2′-methyl-2′-hydroxy-4′-(3′′-carboxy-2′′ -pyridyl)butanoic acid] dicarbolactone dihydro-β-agarofuran], the viability at 48 h, 100 µM in data set [1] stood at 101 ± 3.58%. Also, the inhibition at 100 µM in data set [2] (setting [4]) turned out to be 7.27 ± 2.28%.

On to `CC(=O)OCC12[C@H](OC(C)=O)[C@H](OC(C)=O)[C@@H]3[C@@H](O)[C@@]14O[C@@]3(C)COC(=O)c1cccnc1CCC(C)(O)C(=O)O[C@@H]([C@H](OC(=O)c1ccccc1)[C@@H]2OC(C)=O)[C@]4(C)O` (stereo partly drawn) [Compound 5, 2β-benzoyloxy-1β,7β,8β,11-tetraacetoxy-4α,5α-dihydroxy-3α,15-[2′-methyl-2′-hydroxy-4′-(3′′-carboxy-2′′-pyridyl)butanoic acid] dicarbolactone dihydro-β-agarofuran], for which the viability at 48 h, 100 µM in data set [1] came to 93.8 ± 2.2%. For the same compound, the “influence on the cell viability” value in data set [3] is recorded as “no influence on the cell viability; also recorded: no effects on the cell viability”. Moreover, the inhibition at 100 µM in data set [2] (setting [4]) was more than 50%. In data set [2] (setting [5]), the IC50 came out at 8.75 µM.

Consider `CC(=O)OCC12[C@H](OC(C)=O)C(=O)[C@@H]3[C@@H](OC(C)=O)[C@@]14O[C@@]3(C)COC(=O)c1cccnc1CCC(C)(OC(=O)c1ccccc1)C(=O)O[C@@H]([C@H](OC(C)=O)[C@@H]2OC(C)=O)[C@]4(C)O` (stereo partly drawn) [Compound 10, 1β,2β,5α,8β,11-pentaacetoxy-4α-droxy-7-oxo-3α,15-[2′-methyl-2′-(3-benzoyloxy)-4′-(3′′-carboxy-2′′-pyridyl)butanoic acid] dicarbolactone dihydro-β-agarofuran], for which the viability at 48 h, 100 µM in data set [1] was determined as 102.8 ± 0.89%. Besides, the inhibition at 100 µM in data set [2] (setting [4]) came to 21.7 ± 4.42%.

(Values after PMC9654820, “Immunosuppressive Sesquiterpene Pyridine Alkaloids from Tripterygium wilfordii Hook. f” (Molecules, 2022).)
